Experimental findings from US9522886B2, “Pyridine derivatives” (Hoffmann-La Roche Inc., priority 2012, dated 2016) are described below.

Counter-ions that a name gives are not always drawn.

One experiment concerns the target human CB2 receptors (Homo sapiens (Human), UniProt P34972). The experiment can be described thus: cAMP assay, CHO cells expressing human CB2 receptors. It counts as cell-based. The conditions noted are these: functional cAMP assay, CHO cells expressing human CB2; read-out: human CB2 EC50. As for the experimental part: (§1) CHO cells expressing human CB1 or CB2 receptors are seeded 17-24 hours prior to the experiment 50.000 cells per well in a black 96 well plate with flat clear bottom (Corning Costar #3904) in DMEM (Invitrogen No. 31331), 1×HT supplement, with 10% fetal calf serum and incubated at 5% CO2 and 37° C. in a humidified incubator. The growth medium was exchanged with Krebs Ringer Bicarbonate buffer with 1 mM IBMX and incubated at 30° C. for 30 min. Compounds were added to a final assay volume of 100 μl and incubated for 30 min at 30° C. Using the cAMP-Nano-TRF detection kit the assay (Roche Diagnostics) was stopped by the addition of 50 μl lysis reagent (Tris, NaCl, 1.5% Triton X100, 2.5% NP40, 10% NaN3) and 50 μl detection solutions (20 μM mAb Alexa700-cAMP 1:1, and 48 μM Ruthenium-2-AHA-cAMP) and shaken for 2 h at room temperature. The time-resolved energy transfer is measured by a TRF reader (Evotec Technologies GmbH), equipped with a ND:YAG laser as excitation source. The plate is measured twice with the excitation at 355 nm and at the emission with a delay of 100 ns and a gate of 100 ns, total exposure time 10 s at 730 (bandwidth 30 nm) or 645 nm (bandwidth 75 nm), respectively.
(§2) EC50 values were determined using Activity Base analysis (ID Business Solution, Limited).
(cAMP levels reflect the balance of adenylyl cyclase and phosphodiesterase activity.)

The target in a further experiment is human CB1 receptors (Homo sapiens (Human), UniProt P21554). Kind of experiment: cAMP assay, CHO cells expressing human CB1 receptors. It counts as cell-based. The note with it: functional cAMP assay, CHO cells expressing human CB1; read-out: human CB1 EC50. The method, then:
as §1, §2

Chain of human CB1 receptors (P21554 whole entry): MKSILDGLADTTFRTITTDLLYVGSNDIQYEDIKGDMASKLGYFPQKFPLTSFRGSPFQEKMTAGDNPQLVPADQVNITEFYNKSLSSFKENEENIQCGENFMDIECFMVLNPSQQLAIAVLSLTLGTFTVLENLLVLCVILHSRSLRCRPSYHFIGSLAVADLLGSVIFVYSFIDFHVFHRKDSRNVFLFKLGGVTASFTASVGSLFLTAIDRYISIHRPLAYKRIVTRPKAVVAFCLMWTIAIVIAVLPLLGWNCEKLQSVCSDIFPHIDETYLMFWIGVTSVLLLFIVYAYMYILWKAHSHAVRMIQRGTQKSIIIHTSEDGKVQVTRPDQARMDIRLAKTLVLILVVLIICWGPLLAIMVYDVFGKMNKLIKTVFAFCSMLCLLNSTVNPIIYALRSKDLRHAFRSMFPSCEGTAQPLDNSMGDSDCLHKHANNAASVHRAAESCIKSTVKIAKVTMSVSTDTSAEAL
Chain of human CB2 receptors (P34972 whole entry): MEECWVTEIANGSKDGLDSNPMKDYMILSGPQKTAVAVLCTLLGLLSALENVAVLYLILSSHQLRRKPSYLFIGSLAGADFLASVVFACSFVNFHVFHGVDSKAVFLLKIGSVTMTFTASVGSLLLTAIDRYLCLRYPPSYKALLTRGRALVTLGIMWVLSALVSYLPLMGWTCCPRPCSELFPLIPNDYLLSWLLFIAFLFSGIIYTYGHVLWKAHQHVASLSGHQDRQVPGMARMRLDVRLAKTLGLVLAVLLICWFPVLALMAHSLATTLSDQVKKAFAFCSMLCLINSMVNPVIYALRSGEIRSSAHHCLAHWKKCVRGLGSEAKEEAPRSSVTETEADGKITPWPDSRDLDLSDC

`NC(=O)CC1(NC(=O)c2ccc(C3CC3)c(OCC(F)(F)C(F)(F)F)n2)COC1` [Example 49, 5-Cyclopropyl-6-(2,2,3,3,3-pentafluoro-propoxy)-pyridine-2-carboxylic acid (3-carbamoylmethyl-oxetan-3-yl)-amide]: the EC50 is 12.7 nM at human CB2 receptors and over 10000 nM on human CB1 receptors.

`COC(=O)CC1(NC(=O)c2ccc(N3CC(F)(F)C3)c(OCC3CC3)n2)CNC(=O)C1` (centres unmarked) [Example 50, (3-{[6-Cyclopropylmethoxy-5-(3,3-difluoro-azetidin-1-yl)-pyridine-2-carbonyl]-amino}-5-oxo-pyrrolidin-3-yl)-acetic acid methyl ester]: the values for the half-maximal effective concentration (EC50) on human CB2 receptors and on human CB1 receptors were 423 nM and over 10000 nM, respectively.

On to `CCOC(=O)CC1(NC(=O)c2ccc(N3CC(F)(F)C3)c(OCC3CC3)n2)CS(=O)(=O)C1` [Example 51, (3-{[6-Cyclopropylmethoxy-5-(3,3-difluoro-azetidin-1-yl)-pyridine-2-carbonyl]-amino}-1,1-dioxo-1λ6-thietan-3-yl)-acetic acid ethyl ester], for which the EC50 is 57 nM on human CB2 receptors and over 10000 nM at human CB1 receptors.

Regarding `COC(=O)CC1(NC(=O)c2ccc(N3CC(F)(F)C3)c(OCC3CC3)n2)CCOCC1` [Example 52, (4-{[6-Cyclopropylmethoxy-5-(3,3-difluoro-azetidin-1-yl)-pyridine-2-carbonyl]-amino}-tetrahydro-pyran-4-yl)-acetic acid methyl ester], the values for the concentration giving a half-maximal response (EC50) at human CB2 receptors and on human CB1 receptors were 74.9 nM and over 10000 nM, respectively.

For `NC(=O)CC1(NC(=O)c2ccc(N3CC(F)(F)C3)c(OCC3CC3)n2)CNC(=O)C1` (centres unmarked) [Example 54, 6-Cyclopropylmethoxy-5-(3,3-difluoro-azetidin-1-yl)-pyridine-2-carboxylic acid (3-carbamoylmethyl-5-oxo-pyrrolidin-3-yl)-amide], the concentration giving a half-maximal response (EC50) at human CB2 receptors is 55 nM; at human CB1 receptors it was over 10000 nM.

In the case of `NC(=O)CC(NC(=O)c1ccc(N2CC(F)(F)C2)c(OCC2CC2)n1)C(F)(F)F` (centres unmarked) [Example 55, 6-Cyclopropylmethoxy-5-(3,3-difluoro-azetidin-1-yl)-pyridine-2-carboxylic acid (1-carbamoylmethyl-2,2,2-trifluoro-ethyl)-amide], the figures for the 50% effective concentration (EC50) at human CB2 receptors and on human CB1 receptors were 3 nM and over 10000 nM, respectively.

Consider `O=C(O)CC1(NC(=O)c2ccc(N3CC(F)(F)C3)c(OCC3CC3)n2)CS(=O)(=O)C1` [Example 56, (3-{[6-Cyclopropylmethoxy-5-(3,3-difluoro-azetidin-1-yl)-pyridine-2-carbonyl]-amino}-1,1-dioxo-1λ6-thietan-3-yl)-acetic acid], for which the 50% effective concentration (EC50) at human CB2 receptors is 3 nM; at human CB1 receptors, over 10000 nM.

As to `O=C(O)CC1(NC(=O)c2ccc(N3CC(F)(F)C3)c(OCC3CC3)n2)CCOCC1` [Example 57, (4-{[6-Cyclopropylmethoxy-5-(3,3-difluoro-azetidin-1-yl)-pyridine-2-carbonyl]-amino}-tetrahydro-pyran-4-yl)-acetic acid], the EC50 on human CB2 receptors was 3 nM; on human CB1 receptors it was over 10000 nM.

As to `NC(=O)CC1(NC(=O)c2ccc(N3CC(F)(F)C3)c(OCC3CC3)n2)CCOCC1` [Example 60, 6-Cyclopropylmethoxy-5-(3,3-difluoro-azetidin-1-yl)-pyridine-2-carboxylic acid (4-carbamoylmethyl-tetrahydro-pyran-4-yl)-amide], the figures for the EC50 at human CB2 receptors and on human CB1 receptors were 2.6 nM and over 10000 nM, respectively.

As to `NC(=O)CC1(NC(=O)c2ccc(N3CC(F)(F)C3)c(OCC3CC3)n2)CS(=O)(=O)C1` [Example 61, 6-Cyclopropylmethoxy-5-(3,3-difluoro-azetidin-1-yl)-pyridine-2-carboxylic acid (3-carbamoylmethyl-1,1-dioxo-1λ6-thietan-3-yl)-amide], the EC50 amounted to 1 nM at human CB2 receptors and 7750 nM at human CB1 receptors.

For the compound `NC(=O)CC1(NC(=O)c2ccc(N3CC(F)(F)C3)c(OCC3CC3)n2)CCSCC1` [Example 62, 6-Cyclopropylmethoxy-5-(3,3-difluoro-azetidin-1-yl)-pyridine-2-carboxylic acid (4-carbamoylmethyl-tetrahydro-thiopyran-4-yl)-amide], the results for the EC50 at human CB2 receptors and on human CB1 receptors were 2.5 nM and over 10000 nM, respectively.

For `NC(=O)CC1(NC(=O)c2ccc(N3CC(F)(F)C3)c(OCC3CC3)n2)CCS(=O)(=O)CC1` [Example 63, N-[4-(2-Amino-2-oxoethyl)-1,1-dioxothian-4-yl]-6-(cyclopropylmethoxy)-5-(3,3-difluoroazetidin-1-yl)pyridine-2-carboxamide], the EC50 on human CB2 receptors was 55.5 nM; on human CB1 receptors, over 10000 nM.

On to `NC(=O)CC(NC(=O)c1ccc(C2CC2)c(OCC2CC2)n1)C1CCOC1` (centres unmarked) [Example 64, N-[3-Amino-3-oxo-1-(oxolan-3-yl)propyl]-5-cyclopropyl-6-(cyclopropylmethoxy)pyridine-2-carboxamide], for which the values for the EC50 on human CB2 receptors and at human CB1 receptors were 5.2 nM and over 10000 nM, respectively.

`NC(=O)CC1(NC(=O)c2ccc(N3CC(F)(F)C3)c(OCC3CC3)n2)CNC1` [Example 65, N-[3-(2-Amino-2-oxoethyl)azetidin-3-yl]-6-(cyclopropylmethoxy)-5-(3,3-difluoroazetidin-1-yl)pyridine-2-carboxamide]: the EC50 is 443 nM at human CB2 receptors and over 10000 nM at human CB1 receptors.

As for `NC(=O)CC1(NC(=O)c2ccc(C3CC3)c(Cc3ccc(F)cc3)n2)CCNCC1` [Example 66, N-[4-(2-Amino-2-oxoethyl)piperidin-4-yl]-5-cyclopropyl-6-[(4-fluorophenyl)methyl]pyridine-2-carboxamide; hydrochloride], the EC50 at human CB2 receptors was 1.3 nM; on human CB1 receptors, over 10000 nM.

On to `NC(=O)CC(NC(=O)c1ccc(N2CC(F)(F)C2)c(OCC2CC2)n1)C1CCOC1` (centres unmarked) [Example 67, N-[3-Amino-3-oxo-1-(oxolan-3-yl)propyl]-6-(cyclopropylmethoxy)-5-(3,3-difluoroazetidin-1-yl)pyridine-2-carboxamide], for which the EC50 on human CB2 receptors was 8.3 nM; on human CB1 receptors, over 10000 nM.

In the case of `COC(=O)CC1(NC(=O)c2ccc(N3CC(F)(F)C3)c(OCC3CC3)n2)CCC1` [Example 68, Methyl 2-[1-[[6-(cyclopropylmethoxy)-5-(3,3-difluoroazetidin-1-yl)pyridine-2-carbonyl]amino]cyclobutyl]acetate], the EC50 was 1.1 nM on human CB2 receptors and over 10000 nM on human CB1 receptors.

`O=C(O)CC1(NC(=O)c2ccc(N3CC(F)(F)C3)c(OCC3CC3)n2)CCC1` [Example 69, 2-[1-[[6-(Cyclopropylmethoxy)-5-(3,3-difluoroazetidin-1-yl)pyridine-2-carbonyl]amino]cyclobutyl]acetic acid]: the EC50 is 302 nM on human CB2 receptors and over 10000 nM on human CB1 receptors.

As to `NC(=O)CC1(NC(=O)c2ccc(N3CC(F)(F)C3)c(OCC3CC3)n2)CCC1` [Example 70, N-[1-(2-Amino-2-oxoethyl)cyclobutyl]-6-(cyclopropylmethoxy)-5-(3,3-difluoroazetidin-1-yl)pyridine-2-carboxamide], the results for the concentration for a half-maximal effect (EC50) at human CB2 receptors and on human CB1 receptors were 0.6 nM and over 10000 nM, respectively.

As to `CCOC(=O)C1(CNC(=O)c2ccc(N3CC(F)(F)C3)c(OCC3CC3)n2)CC1` [Example 71, Ethyl 1-[[[6-(cyclopropylmethoxy)-5-(3,3-difluoroazetidin-1-yl)pyridine-2-carbonyl]amino]methyl]cyclopropane-1-carboxylate], the concentration giving a half-maximal response (EC50) on human CB2 receptors is 60.6 nM; at human CB1 receptors, over 10000 nM.

Regarding `CC(=O)N1CCC(CC(N)=O)(NC(=O)c2ccc(C3CC3)c(Cc3ccc(F)cc3)n2)CC1` [Example 72, N-[1-Acetyl-4-(2-amino-2-oxoethyl)piperidin-4-yl]-5-cyclopropyl-6-[(4-fluorophenyl)methyl]pyridine-2-carboxamide], the EC50 is 5 nM at human CB2 receptors and over 10000 nM on human CB1 receptors.

For the compound `CC(=O)N1CC(CC(N)=O)(NC(=O)c2ccc(N3CC(F)(F)C3)c(OCC3CC3)n2)C1` [Example 73, N-[1-Acetyl-3-(2-amino-2-oxoethyl)azetidin-3-yl]-6-(cyclopropylmethoxy)-5-(3,3-difluoroazetidin-1-yl)pyridine-2-carboxamide], the EC50 at human CB2 receptors was 120 nM; on human CB1 receptors, over 10000 nM.

Regarding `NC(=O)CC1(NC(=O)c2ccc(C3CC3)c(Cc3ccc(F)cc3)n2)CN(C(=O)OCc2ccccc2)C1` [Example 74, Benzyl 3-(2-amino-2-oxoethyl)-3-[[5-cyclopropyl-6-[(4-fluorophenyl)methyl]pyridine-2-carbonyl]amino]azetidine-1-carboxylate], the values for the EC50 at human CB2 receptors and at human CB1 receptors were 39 nM and over 10000 nM, respectively.

`CC(C)CSc1nc(C(=O)NC2(CC(N)=O)CS(=O)(=O)C2)ccc1C1CC1` [Example 75, N-[3-(2-Amino-2-oxoethyl)-1,1-dioxothietan-3-yl]-5-cyclopropyl-6-(2-methylpropylsulfanyl)pyridine-2-carboxamide]: the EC50 at human CB2 receptors was 15.8 nM; at human CB1 receptors, over 10000 nM.

`NC(=O)CC1(NC(=O)c2ccc(C3CC3)c(OCC3CC3)n2)CS(=O)(=O)C1` [Example 77, N-[3-(2-Amino-2-oxoethyl)-1,1-dioxothietan-3-yl]-5-cyclopropyl-6-(cyclopropylmethoxy)pyridine-2-carboxamide]: the concentration giving a half-maximal response (EC50) at human CB2 receptors is 0.7 nM; on human CB1 receptors, over 10000 nM.

As usually defined, the EC50 is the concentration that produces a half-maximal response.
